From patent US20050170331A1, “Method for characterizing metabolic stability of a drug” (priority 2003, published 2005)

System: hepatocytes
Assay: Metabolic stability in hepatocyte suspension by hyperpolarised 13C NMR
Format: in vitro ADME
Conditions: hepatocytes 1·10^6 cells/ml in RPMI 1640, 37° C., 30 s incubation, drug candidate approximately 0.46 mM, DNP hyperpolarised
Protocol: The concentration of hepatocytes was 1·10^6 cells/ml in a suspension of RPMI 1640 medium. 1 ml of this suspension was placed in a 10 mm NMR tube with a bottom plug, reducing the active volume to […]. The tube was placed in a 9.4 T magnet with the temperature of the probe equilibrated to 37° C. A tube was connected to the bottom of the NMR tube to allow for injection of the hyperpolarised drug candidate solution into the cell suspension.
^13C2-sodiumfumerate was diluted in water and mixed (1:1 w/w) with a glycerol solution containing 40 mM trityl. The liquid sample was frozen as droplets in liquid nitrogen. 84.3 mg of this sample (3.84 mg of ^13C2-sodiumfumerate) was placed in the polariser and hyperpolarised for two hours at 93.945 GHz and 100 mW (DNP method). The dissolution was performed with Tris buffer containing 100 mg/l EDTA (pH 7.4, 20 mM, 6 ml). The active dissolution volume was 5.5 ml with full recovery of the sample. A 1 ml syringe was filled completely (volume: 1100 μl) with the dissolved ^13C2-sodiumfumerate solution, a total of 100 μl of this solution was quickly transferred to the liquid-NMR magnet and injected into the cell suspension, resulting in a total drug candidate concentration of approximately 0.46 mM. […]

SMILES: O=C([O-])/C=C/C(=O)[O-].[Na+].[Na+] [^13C2-sodiumfumerate]
- metabolites of the drug candidate observed in the 13C NMR spectrum of the mixture: two different metabolites of the drug candidate, namely succinate and malate
